Experiment [1] deals with AsPC-1 (G12D). In words: In vitro cell proliferation inhibition test (CellTiter-Glo Luminescent Cell Viability Assay). The class given is cell-based. The following applies: AsPC-1 cell line, Pancreas, KRAS (p.G12D), cells and compounds co-incubated 72 hours. From the text: (§1) Due to the diversity of RAS mutations and in order to evaluate the activity of compounds in different RAS mutant cell lines, we selected KRAS^WT, KRAS^G12C, KRAS^G12D), KRAS^G12V and BRAF mutant cell lines (see the table below) for in vitro activity evaluation and screening of compounds .
(§2) Experimental protocol: CellTiter-Glo® Cell Luminescent Viability Assay (Promega)
(§3) According to the doubling time of different cell lines, different numbers of cells (1000-5000 cells/well) were inoculated into 96-well plates containing 180 µl of the corresponding medium, and cultured overnight in a 37°C cell incubator containing 5% CO2. On the second day, the compound to be tested was pre-diluted 3-fold with the medium, the highest concentration was 100 µM, and there were 10 concentration gradients in total; then 20 µl of the medium containing different concentrations of the compound was added to the cells in the 96-well plate to ensure the final concentration of the compound to be up to 10 µM, with 10 concentration gradients of 3-fold dilutions. After co-incubating cells and compounds for 72 hours, the 96-well plate was taken out of the incubator, placed at room temperature for 30 minutes, and then 25 µl CellTiter-Glo® Reagent was added to each well to mix well, and incubated at room temperature for 10 minutes, and then 100 µl of the sample was transferred to a white 96-well plate (OptiPlateTM-96, PerkinElmer), the […] signal value was read using a multi-functional microplate reader (SpectraMax® i3x, Molecular devices). Subsequently, the signal value was standardized, and the four-parameter fitting regression equation was used for curve fitting to calculate the half maximal inhibitory concentration (IC50) of the compound on the cell line. Table 3: Antiproliferative activity of compounds of the present invention on KRAS cell mutants

Experiment [2] relates to SW480 (G12V). The experiment is described as above. Particulars: SW480 cell line, Large intestine, Colon, KRAS (p.G12V), cells and compounds co-incubated 72 hours. The class given is cell-based.
Description: as §1, §2, §3

In general, IC50 refers to the concentration that gives 50% inhibition. Turning to `CCn1c(-c2cc(C#CCN3CCOCC3)cnc2[C@H](C)OC)c2c3cc(ccc31)-c1csc(n1)C[C@H](NC(=O)C1(C(F)(F)F)CC1)C(=O)N1CCC[C@H](N1)C(=O)OCC(C)(C)C2` (single isomer, unassigned) [Example 26], the half-maximal inhibitory concentration (IC50) in experiment [1] worked out at 20.8 nM; in experiment [2], 34.6 nM.

In the case of `CCn1c(-c2cc(C#CC3CCN(C)C3)cnc2C(C)OC)c2c3cc(ccc31)-c1csc(n1)CC(NC(=O)C1C(C)C1C)C(=O)N1CCCC(N1)C(=O)OCC(C)(C)C2` (single isomer, unassigned) [Example 18], the IC50 was found to be 3.4 nM in experiment [1] and 0.42 nM in experiment [2].

For `CCn1c(-c2cc(C#CCN3CCOCC3CO)cnc2C(C)OC)c2c3cc(ccc31)-c1csc(n1)CC(NC(=O)C1C(C)C1C)C(=O)N1CCCC(N1)C(=O)OCC(C)(C)C2` (single isomer, unassigned) [Example 25], the IC50 in experiment [1] worked out at 0.35 nM; in experiment [2], 0.51 nM.

With `CCn1c(-c2cc(C#Cc3cccc4ccn(C)c34)cnc2[C@H](C)OC)c2c3cc(ccc31)-c1csc(n1)C[C@H](NC(=O)[C@H]1C[C@@H]1C)C(=O)N1CCC[C@H](N1)C(=O)OCC(C)(C)C2` [Example 47, (1S,2S)-N-((6^3S,4S,Z)-1^1-ethyl-1^2-(2-((S)-1-methoxyethyl)-5-((1-methyl-1H-indol-7-yl)ethynyl)pyridin-3-yl)-10,10-dimethyl-5,7-dioxo-6^1,6^2,6^3,6^4,6^5,6^6-hexahydro-1^1H-8-oxa-2(4,2)-thiazola-1(5,3)-indola-6(1,3)-pyridazinacycloundecaphane-4-yl)-2-methylcyclopropane-1-carboxamide], the IC50 in experiment [1] (Homo sapiens, ASPC1) worked out at 456 nM; in experiment [2] (Homo sapiens) it was 116 nM.

Turning to `CCNc1cccc(C#Cc2cnc([C@H](C)OC)c(-c3c4c5cc(ccc5n3CC)-c3csc(n3)C[C@H](NC(=O)[C@H]3C[C@@H]3C)C(=O)N3CCC[C@H](N3)C(=O)OCC(C)(C)C4)c2)n1` (single isomer, unassigned) [Example 31], the figures for the IC50 in experiment [1] and in experiment [2] were 78 nM and 100 nM, respectively.

Consider `CCn1c(-c2cc(C#CC3CCCN3C)cnc2C(C)OC)c2c3cc(ccc31)-c1csc(n1)CC(NC(=O)C1C(C)C1C)C(=O)N1CCCC(N1)C(=O)OCC(C)(C)C2` [Example 11, (1r,2R,3S)-N-((63S,4S,Z)-11-ethyl-12-(2-((S)-1-methoxyethyl)-5-(((S)-1-methylpyrrolidin-2-yl)ethynyl)pyridin-3-yl)-10,10-dimethyl-5,7-dioxo-61,62,63,64,65,66-hexahydro-11H-8-oxa-2(4,2)-thiazola-1(5,3)-indola-6(1,3)-pyridazinacyclonecaphane-4-yl)-2,3-dimethylcyclopropane-1-carboxamide], for which, in experiment [1], the IC50 came to 1.7 nM.

Turning to `CCn1c(-c2cc(C#Cc3cnccn3)cnc2[C@H](C)OC)c2c3cc(ccc31)-c1csc(n1)C[C@H](NC(=O)[C@H]1C[C@@H]1C)C(=O)N1CCC[C@H](N1)C(=O)OCC(C)(C)C2` (single isomer, unassigned) [Example 27], the IC50 came out at 4.6 nM in experiment [1] and 14.5 nM in experiment [2].

For the compound `CCn1c(-c2cc(C#CCCN3CCOCC3)cnc2[C@H](C)OC)c2c3cc(ccc31)-c1csc(n1)C[C@H](NC(=O)[C@H]1C[C@@H]1C)C(=O)N1CCC[C@H](N1)C(=O)OCC(C)(C)C2` (single isomer, unassigned) [Example 5], the IC50 in experiment [1] was 3220 nM; in experiment [2], 24.6 nM; in experiment [2] (listed as 5') it was 2020 nM.

For `CCn1c(-c2cc(C#CCN3CCOC(CO)C3)cnc2C(C)OC)c2c3cc(ccc31)-c1csc(n1)CC(NC(=O)C1CC1C)C(=O)N1CCCC(N1)C(=O)OCC(C)(C)C2` (single isomer, unassigned) [Example 20], the IC50 stood at 2.4 nM in experiment [1] and 8.9 nM in experiment [2].

For `CCn1c(-c2cc(C#C[C@@H]3CCN(C)C3)cnc2[C@H](C)OC)c2c3cc(ccc31)-c1csc(n1)C[C@H](NC(=O)C1[C@@H](C)[C@H]1C)C(=O)N1CCC[C@H](N1)C(=O)OCC(C)(C)C2` (stereo partly drawn) [Example 14], the IC50 is less than 0.1 nM in experiment [1], 57.1 nM in experiment [1] (listed as 14') and 0.2 nM in experiment [2].

Take “(1S,2S)-N-((6^3S,4S,Z)-1^1-ethyl-1^2-(2-((S)-1-methoxyethyl)-5-(pyrimidin-5-ylethynyl)pyridin-3-yl)-10,10-dimethyl-5,7-dioxo-6^1,6^2,6^3,6^4,6^5,6^6-hexahydro-1^1H-8-oxa-2(4,2)-thiazola-1(5,3)-indola-6(1,3)-pyridazinacycloundecaphane-4-yl)-2-methylcyclopropane-1-carboxamide [Example 22]”: the values for the IC50 in experiment [1] and in experiment [2] were 6.5 nM and 19.2 nM, respectively.

Consider “(1S,2S)-N-((6^3S,4S,Z)-1^2-(5-(3-(1,1-dioxidothiomorpholino)prop-1-yn-1-yl)-2-((S)-1-methoxyethyl)pyridin-3-yl)-1^1-ethyl-10,10-dimethyl-5,7-dioxo-6^1,6^2,6^3,6^4,6^5,6^6-hexahydro-1^1H-8-oxa-2(4,2)-thiazola-1(5,3)-indola-6(1,3)-pyridazinacycloundecaphane-4-yl)-2-methylcyclopropane-1-carboxamide [Example 43]”, for which the IC50 turned out to be 0.42 nM in experiment [1] and 0.68 nM in experiment [2].

With `CCn1c(-c2cc(C#Cc3cccnc3)cnc2C(C)OC)c2c3cc(ccc31)-c1csc(n1)CC(NC(=O)C1CC1C)C(=O)N1CCCC(N1)C(=O)OCC(C)(C)C2` [Example 17, (1S,2S)-N-((63S,4S,Z)-11-ethyl-12-(2-((S)-1-methoxyethyl)-5-(pyridin-3-ylethynyl)pyridin-3-yl)-10,10-dimethyl-5,7-dioxo-61,62,63,64,65,66-hexahydro-11H-8-oxa-2(4,2)-thiazola-1(5,3)-indola-6(1,3)-pyridazinacyclonecaphane-4-yl)-2-methylcyclopropane-1-carboxamide], the IC50 was 37.8 nM in experiment [1], 700 nM in experiment [1] (listed as 17'), 30.2 nM in experiment [2] and 474 nM in experiment [2] (listed as 17').

For `CCn1c(-c2cc(C#Cc3cnc4c(c3)CN(C)C4)cnc2[C@H](C)OC)c2c3cc(ccc31)-c1csc(n1)C[C@H](NC(=O)[C@H]1C[C@@H]1C)C(=O)N1CCC[C@H](N1)C(=O)OCC(C)(C)C2` [Example 46, (1S,2S)-N-((6^3S,4S,Z)-1^1-ethyl-1^2-(2-((S)-1-methoxyethyl)-5-((6-methyl-6,7-dihydro-5H-pyrrolo[3,4-b]pyridin-3-yl)ethynyl)pyridin-3-yl)-10,10-dimethyl-5,7-dioxo-6^1,6^2,6^3,6^4,6^5,6^6-hexahydro-1^1H-8-oxa-2(4,2)-thiazola-1(5,3)-indola-6(1,3)-pyridazinacycloundecaphane-4-yl)-2-methylcyclopropane-1-carboxamide], the results for the IC50 in experiment [1] and in experiment [2] were 19.5 nM and 11.4 nM, respectively.

With “(1r,2R,3S)-N-((6^3S,4S,Z)-12-(5-(3-((S)-3-(ethoxymethyl)morpholino)prop-1-yn-1-yl)-2-((S)-1-methoxyethyl)pyridin-3-yl)-1^1-ethyl-10,10-dimethyl-5,7-dioxo-6^1,6^2,6^3,6^4,6^5,6^6-hexahydro-1^1H-8-oxa-2(4,2)-thiazola-1(5,3)-indola-6(1,3)-pyridazinacycloundecaphane-4-yl)-2,3-dimethylcyclopropane-1-carboxamide [Example 37]”, the values for the IC50 in experiment [1] and in experiment [2] were 1.01 nM and 0.68 nM, respectively.

The values are drawn from patent publication EP4582426A1, “PAN-KRAS INHIBITOR COMPOUND” (Adlai Nortye Biopharma Co., Ltd., priority 2022, dated 2024).
